# Assays:
# Format in all cases: binding
# [1] = biological target: T1, JAK1 (Homo sapiens, UniProt P23458); test: Kinobeads assay with immunodetection, JAK1; conditions: for IC50: Kinobeads assay, mixed Molt4/Ramos lysate, read-out: Inhibition values (IC50) JAK1
# T1 construct: endogenous in cells; host or cells: Molt4 (ATCC CRL-1582) and Ramos (ATCC CRL-1596) cells; mixed lysate 1:2
# Method in brief: (§1)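 Steps: compound serially diluted 1:3 in DMSO; added with kinobeads to mixed Molt4/Ramos lysate; 3 h cold incubation; wash; SDS elution; antibody dot blot quantitation of each kinase; IC50 fitting.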
# [2] = biological target: T2, JAK2 (Homo sapiens, UniProt O60674); test: Kinobeads assay with immunodetection, JAK2; conditions: mixed Molt4/Ramos lysate, read-out: Inhibition values (IC50) JAK2
# T2 construct: endogenous in cells; host or cells: Molt4 (ATCC CRL-1582) and Ramos (ATCC CRL-1596) cells; mixed lysate 1:2
# Method in brief: as §1
# [3] = biological target: T3, JAK3 (Homo sapiens, UniProt P52333); test: Kinobeads assay with immunodetection, JAK3; conditions: for IC50: Kinobeads assay, mixed Molt4/Ramos lysate, read-out: Inhibition values (IC50) JAK3
# T3 construct: endogenous in cells; host or cells: Molt4 (ATCC CRL-1582) and Ramos (ATCC CRL-1596) cells; mixed lysate 1:2
# T3 sequence (P52333 1-1124): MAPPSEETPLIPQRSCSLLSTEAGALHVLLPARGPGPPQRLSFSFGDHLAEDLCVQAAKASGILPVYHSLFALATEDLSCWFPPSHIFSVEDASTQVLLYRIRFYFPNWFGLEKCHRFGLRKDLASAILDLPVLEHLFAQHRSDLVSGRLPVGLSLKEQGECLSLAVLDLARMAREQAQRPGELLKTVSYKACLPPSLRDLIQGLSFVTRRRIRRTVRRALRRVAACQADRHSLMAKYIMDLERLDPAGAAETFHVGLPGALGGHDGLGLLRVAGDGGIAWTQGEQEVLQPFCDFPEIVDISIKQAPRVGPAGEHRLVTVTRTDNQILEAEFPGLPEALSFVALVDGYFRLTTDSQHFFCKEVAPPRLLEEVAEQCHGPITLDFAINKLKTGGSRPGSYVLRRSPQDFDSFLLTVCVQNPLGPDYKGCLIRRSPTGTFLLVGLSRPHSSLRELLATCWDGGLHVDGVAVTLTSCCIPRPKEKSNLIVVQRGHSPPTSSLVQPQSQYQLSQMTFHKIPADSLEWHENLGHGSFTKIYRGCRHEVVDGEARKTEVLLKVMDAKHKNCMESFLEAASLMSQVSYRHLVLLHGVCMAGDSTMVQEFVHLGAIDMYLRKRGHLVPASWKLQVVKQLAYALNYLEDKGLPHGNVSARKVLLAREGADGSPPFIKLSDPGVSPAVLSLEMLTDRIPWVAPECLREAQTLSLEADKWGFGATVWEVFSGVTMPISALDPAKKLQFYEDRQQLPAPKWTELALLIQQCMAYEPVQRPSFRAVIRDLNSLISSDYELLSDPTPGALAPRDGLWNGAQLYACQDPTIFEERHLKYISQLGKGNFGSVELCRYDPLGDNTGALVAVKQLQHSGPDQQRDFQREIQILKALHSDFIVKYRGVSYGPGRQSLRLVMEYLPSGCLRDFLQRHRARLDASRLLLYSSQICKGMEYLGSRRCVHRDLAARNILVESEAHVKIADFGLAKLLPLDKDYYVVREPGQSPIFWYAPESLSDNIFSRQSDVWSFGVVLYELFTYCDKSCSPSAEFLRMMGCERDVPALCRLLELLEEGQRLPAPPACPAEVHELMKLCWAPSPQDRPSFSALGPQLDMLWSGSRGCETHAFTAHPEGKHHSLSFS
# Method in brief: as §1
# [4] = biological target: T4, TYK2 (Homo sapiens, UniProt P29597); test: Kinobeads assay with immunodetection, TYK2; conditions: for IC50: Kinobeads assay, mixed Molt4/Ramos lysate, read-out: Inhibition values (IC50) Tyk2
# T4 construct: endogenous in cells; host or cells: Molt4 (ATCC CRL-1582) and Ramos (ATCC CRL-1596) cells; mixed lysate 1:2
# Method in brief: as §1
# T2 sequence (O60674 whole entry): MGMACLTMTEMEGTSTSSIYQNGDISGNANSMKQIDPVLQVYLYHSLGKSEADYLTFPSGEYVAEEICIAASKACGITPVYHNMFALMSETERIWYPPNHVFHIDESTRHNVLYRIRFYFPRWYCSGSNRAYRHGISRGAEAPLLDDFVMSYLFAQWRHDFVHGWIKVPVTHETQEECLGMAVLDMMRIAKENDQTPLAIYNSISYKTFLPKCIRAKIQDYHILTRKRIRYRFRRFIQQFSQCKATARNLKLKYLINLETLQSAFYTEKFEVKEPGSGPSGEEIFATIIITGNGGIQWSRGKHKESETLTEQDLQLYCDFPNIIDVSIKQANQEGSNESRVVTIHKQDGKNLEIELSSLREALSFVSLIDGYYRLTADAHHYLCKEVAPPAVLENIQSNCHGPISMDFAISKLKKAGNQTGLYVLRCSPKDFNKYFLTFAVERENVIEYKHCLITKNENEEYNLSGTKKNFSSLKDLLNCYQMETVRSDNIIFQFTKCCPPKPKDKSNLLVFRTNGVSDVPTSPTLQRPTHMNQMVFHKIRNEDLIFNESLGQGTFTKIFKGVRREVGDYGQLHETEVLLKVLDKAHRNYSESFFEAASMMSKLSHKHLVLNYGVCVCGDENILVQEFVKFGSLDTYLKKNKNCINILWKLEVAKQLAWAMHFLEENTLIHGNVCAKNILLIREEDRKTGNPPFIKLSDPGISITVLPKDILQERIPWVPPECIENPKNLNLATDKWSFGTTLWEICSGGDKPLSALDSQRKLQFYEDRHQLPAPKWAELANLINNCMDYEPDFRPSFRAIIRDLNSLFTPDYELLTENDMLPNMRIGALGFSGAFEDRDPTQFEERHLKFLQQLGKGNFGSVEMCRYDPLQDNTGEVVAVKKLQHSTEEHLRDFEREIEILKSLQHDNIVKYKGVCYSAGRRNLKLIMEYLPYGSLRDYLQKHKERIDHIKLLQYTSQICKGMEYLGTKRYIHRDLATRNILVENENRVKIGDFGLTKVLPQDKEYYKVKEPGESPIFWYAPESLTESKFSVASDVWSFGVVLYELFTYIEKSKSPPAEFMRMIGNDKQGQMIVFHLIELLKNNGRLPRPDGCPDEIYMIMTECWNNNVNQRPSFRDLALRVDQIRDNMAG
# T1 sequence (P23458 whole entry): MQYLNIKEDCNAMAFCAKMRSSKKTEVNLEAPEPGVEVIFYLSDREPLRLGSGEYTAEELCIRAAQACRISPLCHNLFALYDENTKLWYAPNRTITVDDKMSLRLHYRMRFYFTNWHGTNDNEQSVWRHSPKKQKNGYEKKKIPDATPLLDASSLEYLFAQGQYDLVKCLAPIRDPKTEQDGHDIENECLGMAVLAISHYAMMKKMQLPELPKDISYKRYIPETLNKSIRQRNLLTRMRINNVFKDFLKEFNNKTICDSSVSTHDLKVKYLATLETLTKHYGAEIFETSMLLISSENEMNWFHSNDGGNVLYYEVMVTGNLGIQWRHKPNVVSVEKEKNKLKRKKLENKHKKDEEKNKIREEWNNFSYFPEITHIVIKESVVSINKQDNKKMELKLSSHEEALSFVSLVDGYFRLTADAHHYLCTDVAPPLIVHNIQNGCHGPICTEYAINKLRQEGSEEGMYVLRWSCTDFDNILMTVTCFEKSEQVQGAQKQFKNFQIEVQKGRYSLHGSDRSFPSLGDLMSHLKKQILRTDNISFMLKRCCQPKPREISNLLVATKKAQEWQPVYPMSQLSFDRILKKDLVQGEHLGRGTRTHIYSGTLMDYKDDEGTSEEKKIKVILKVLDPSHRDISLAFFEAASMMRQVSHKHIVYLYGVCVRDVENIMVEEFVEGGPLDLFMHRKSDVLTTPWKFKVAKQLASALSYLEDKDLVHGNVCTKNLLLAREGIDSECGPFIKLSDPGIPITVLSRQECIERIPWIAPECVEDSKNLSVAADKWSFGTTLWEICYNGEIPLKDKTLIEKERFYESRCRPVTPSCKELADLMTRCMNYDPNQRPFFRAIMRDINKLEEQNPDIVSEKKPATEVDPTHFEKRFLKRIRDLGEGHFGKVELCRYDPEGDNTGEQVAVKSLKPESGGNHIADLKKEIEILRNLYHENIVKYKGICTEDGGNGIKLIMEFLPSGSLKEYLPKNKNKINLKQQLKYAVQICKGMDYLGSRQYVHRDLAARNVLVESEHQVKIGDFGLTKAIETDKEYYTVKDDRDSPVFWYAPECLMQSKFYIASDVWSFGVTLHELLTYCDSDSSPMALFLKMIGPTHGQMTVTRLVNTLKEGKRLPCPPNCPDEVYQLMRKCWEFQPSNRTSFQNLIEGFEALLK
# T4 sequence (P29597 whole entry): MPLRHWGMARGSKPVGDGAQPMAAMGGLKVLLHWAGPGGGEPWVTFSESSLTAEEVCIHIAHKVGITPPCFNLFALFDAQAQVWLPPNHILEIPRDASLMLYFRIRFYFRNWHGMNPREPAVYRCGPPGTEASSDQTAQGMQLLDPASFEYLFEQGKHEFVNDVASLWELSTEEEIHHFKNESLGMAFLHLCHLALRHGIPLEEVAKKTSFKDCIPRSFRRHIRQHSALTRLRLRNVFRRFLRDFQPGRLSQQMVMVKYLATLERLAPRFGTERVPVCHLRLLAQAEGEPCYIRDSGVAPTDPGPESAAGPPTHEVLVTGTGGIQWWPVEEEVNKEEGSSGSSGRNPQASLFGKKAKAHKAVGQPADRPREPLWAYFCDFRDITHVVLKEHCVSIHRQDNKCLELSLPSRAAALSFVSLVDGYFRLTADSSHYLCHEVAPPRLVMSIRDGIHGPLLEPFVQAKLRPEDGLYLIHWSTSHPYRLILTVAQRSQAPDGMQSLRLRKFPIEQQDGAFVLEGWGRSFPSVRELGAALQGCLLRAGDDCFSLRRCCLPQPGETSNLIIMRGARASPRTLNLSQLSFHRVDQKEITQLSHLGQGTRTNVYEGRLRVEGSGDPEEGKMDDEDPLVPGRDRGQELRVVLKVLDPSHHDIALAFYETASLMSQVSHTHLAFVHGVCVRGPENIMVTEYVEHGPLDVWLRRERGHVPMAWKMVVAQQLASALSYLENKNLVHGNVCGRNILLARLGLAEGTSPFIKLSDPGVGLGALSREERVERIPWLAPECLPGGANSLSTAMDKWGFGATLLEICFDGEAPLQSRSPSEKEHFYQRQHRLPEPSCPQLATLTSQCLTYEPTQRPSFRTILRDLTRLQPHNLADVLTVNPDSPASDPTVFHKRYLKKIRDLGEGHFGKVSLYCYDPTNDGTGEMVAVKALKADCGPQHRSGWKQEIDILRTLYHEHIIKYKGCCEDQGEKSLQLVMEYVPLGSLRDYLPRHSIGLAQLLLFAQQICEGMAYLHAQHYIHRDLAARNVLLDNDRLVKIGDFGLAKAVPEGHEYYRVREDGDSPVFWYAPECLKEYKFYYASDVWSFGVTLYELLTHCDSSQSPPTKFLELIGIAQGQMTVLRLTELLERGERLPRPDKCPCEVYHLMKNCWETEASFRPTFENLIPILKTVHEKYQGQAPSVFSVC
IC50 [1],IC50 [2],IC50 [3],IC50 [4],"Selectivity ratio over JAK2, Tyk2 [4]","Selectivity ratio over JAK2, JAK3 [3]","Selectivity ratio over JAK2, JAK1 [1]",SMILES
< 100 nM,> 10000 nM,100 to 1000 nM,100 to 1000 nM,–,–,JAK1 = 150,"Cc1cnc(Nc2cnn(C)c2)nc1NC[C@@H]1C[C@H](F)CN1C(=O)CC#N [Example 103, 3-((2S,4S)-4-fluoro-2-(((5-methyl-2-((1-methyl-1H-pyrazol-4-yl)amino)pyrimidin-4-yl)amino)methyl)pyrrolidin-1-yl)-3-oxopropanenitrile]"
< 100 nM,1000 to 10000 nM,100 to 1000 nM,< 100 nM,–,–,JAK1 = 96,"Cc1cnc(Nc2cnn(C)c2)nc1NC[C@@H]1C[C@H](F)CN1C(=O)CCC#N [Example 104, 4-((2S,4S)-4-fluoro-2-(((5-methyl-2-((1-methyl-1H-pyrazol-4-yl)amino)pyrimidin-4-yl)amino)methyl)pyrrolidin-1-yl)-4-oxobutanenitrile]"
< 100 nM,1000 to 10000 nM,100 to 1000 nM,< 100 nM,–,–,JAK1 = 33,"Cc1cnc(Nc2cnn(C)c2)nc1NC[C@@H]1CCCN1CCS(C)(=O)=O [Example 105, (S)-5-methyl-N^2-(1-methyl-1H-pyrazol-4-yl)-N^4-((1-(2-(methylsulfonyl)ethyl)pyrrolidin-2-yl)methyl)pyrimidine-2,4-diamine]"
< 100 nM,1000 to 10000 nM,100 to 1000 nM,< 100 nM,Tyk2 = 38,–,–,"Cc1cnc(Nc2cnn(C)c2)nc1NC[C@@H]1CCCN1CCC#N [Example 106, (S)-3-(2-(((5-methyl-2-((1-methyl-1H-pyrazol-4-yl)amino)pyrimidin-4-yl)amino)methyl)pyrrolidin-1-yl)propanenitrile]"
< 100 nM,100 to 1000 nM,< 100 nM,< 100 nM,Tyk2 = 67,–,–,"Cc1cnc(Nc2cnn(C)c2)nc1NC[C@H]1CCCN1CCS(C)(=O)=O [Example 107, (R)-5-methyl-N^2-(1-methyl-1H-pyrazol-4-yl)-N^4-((1-(2-(methylsulfonyl)ethyl)pyrrolidin-2-yl)methyl)pyrimidine-2,4-diamine]"
100 to 1000 nM,1000 to 10000 nM,100 to 1000 nM,< 100 nM,Tyk2 = 80,–,–,"Cc1cnc(Nc2cnn(C)c2)nc1NC[C@H]1CCCN1CCC#N [Example 108, (R)-3-(2-(((5-methyl-2-((1-methyl-1H-pyrazol-4-yl)amino)pyrimidin-4-yl)amino)methyl)pyrrolidin-1-yl)propanenitrile]"
< 100 nM,100 to 1000 nM,100 to 1000 nM,< 100 nM,Tyk2 = 69,–,–,"Cc1cnc(Nc2cnn(C)c2)nc1NC[C@H]1CCCN1C(=O)CC#N [Example 109, (R)-3-(2-(((5-methyl-2-((1-methyl-1H-pyrazol-4-yl)amino)pyrimidin-4-yl)amino)methyl)pyrrolidin-1-yl)-3-oxopropanenitrile]"
< 100 nM,1000 to 10000 nM,< 100 nM,100 to 1000 nM,–,–,JAK1 = 88,"Cn1cc(Nc2ncc(Cl)c(NC[C@@H]3C[C@H](F)CN3C(=O)CCC#N)n2)cn1 [Example 110, 4-((2S,4S)-2-(((5-chloro-2-((1-methyl-1H-pyrazol-4-yl)amino)pyrimidin-4-yl)amino)methyl)-4-fluoropyrrolidin-1-yl)-4-oxobutanenitrile]"
< 100 nM,1000 to 10000 nM,1000 to 10000 nM,< 100 nM,–,–,JAK1 = 55,"Cc1cnc(Nc2cnn(C)c2)nc1NC[C@H]1CCN(C(=O)CCC#N)C1 [Example 111, (R)-4-(3-(((5-methyl-2-((1-methyl-1H-pyrazol-4-yl)amino)pyrimidin-4-yl)amino)methyl)pyrrolidin-1-yl)-4-oxobutanenitrile]"

# The remaining lines, values behind:
SMILES,IC50 [1],IC50 [2],IC50 [3],IC50 [4],"Selectivity ratio over JAK2, Tyk2 [4]","Selectivity ratio over JAK2, JAK3 [3]","Selectivity ratio over JAK2, JAK1 [1]"
"CC(C)NC(=O)Cn1cc(Nc2nccc(NC[C@H]3CCCN3C(=O)CCC#N)n2)cn1 [Example 94, (R)-2-(4-((4-(((1-(3-cyanopropanoyl)pyrrolidin-2-yl)methyl)amino)pyrimidin-2-yl)amino)-1H-pyrazol-1-yl)-N-isopropylacetamide]",100 to 1000 nM,1000 to 10000 nM,1000 to 10000 nM,< 100 nM,Tyk2 = 609,–,–
"Cn1cc(Nc2nccc(NC[C@H]3CCCN3C(=O)CC#N)n2)cn1 [Example 95, (R)-3-(2-(((2-((1-methyl-1H-pyrazol-4-yl)amino)pyrimidin-4-yl)amino)methyl)pyrrolidin-1-yl)-3-oxopropanenitrile]",100 to 1000 nM,1000 to 10000 nM,1000 to 10000 nM,< 100 nM,Tyk2 = 138,–,–
"CC(C)NC(=O)Cn1cc(Nc2nccc(NC[C@H]3CCCN3C(=O)CC#N)n2)cn1 [Example 96, (R)-2-(4-((4-(((1-(2-cyanoacetyl)pyrrolidin-2-yl)methyl)amino)pyrimidin-2-yl)amino)-1H-pyrazol-1-yl)-N-isopropylacetamide]",100 to 1000 nM,> 10000 nM,1000 to 10000 nM,< 100 nM,Tyk2 = 555,–,–
"Cn1cc(Nc2ncc(Cl)c(NC[C@H]3CCCN3CCCC#N)n2)cn1 [Example 97, (R)-4-(2-(((5-chloro-2-((1-methyl-1H-pyrazol-4-yl)amino)pyrimidin-4-yl)amino)methyl)pyrrolidin-1-yl)butanenitrile]",< 100 nM,1000 to 10000 nM,< 100 nM,< 100 nM,–,JAK3 = 160,–
"Cn1cc(Nc2ncc(Cl)c(NC[C@H]3CCCN3S(=O)(=O)C3CC3)n2)cn1 [Example 98, (R)-5-chloro-N^4-((1-(cyclopropylsulfonyl)pyrrolidin-2-yl)methyl)-N^2-(1-methyl-1H-pyrazol-4-yl)pyrimidine-2,4-diamine]",< 100 nM,100 to 1000 nM,< 100 nM,< 100 nM,–,JAK3 = 53,–
"Cn1cc(Nc2ncc(Cl)c(NC[C@H]3CCCN3CC(=O)NCC#N)n2)cn1 [Example 99, (R)-2-(2-(((5-chloro-2-((1-methyl-1H-pyrazol-4-yl)amino)pyrimidin-4-yl)amino)methyl)pyrrolidin-1-yl)-N-(cyanomethyl)acetamide]",< 100 nM,1000 to 10000 nM,< 100 nM,100 to 1000 nM,–,JAK3 = 155,–
"Cc1cnc(Nc2cnn(C)c2)nc1NC[C@@H]1C[C@H](F)CN1CCS(C)(=O)=O [Example 100, N^4-(((2S,4S)-4-fluoro-1-(2-(methylsulfonyl)ethyl)pyrrolidin-2-yl)methyl)-5-methyl-N^2-(1-methyl-1H-pyrazol-4-yl)pyrimidine-2,4-diamine]",< 100 nM,100 to 1000 nM,100 to 1000 nM,< 100 nM,–,–,JAK1 = 26
"Cc1cnc(Nc2cnn(C)c2)nc1NC[C@@H]1C[C@H](F)CN1CCC#N [Example 101, 3-((2S,4S)-4-fluoro-2-(((5-methyl-2-((1-methyl-1H-pyrazol-4-yl)amino)pyrimidin-4-yl)amino)methyl)pyrrolidin-1-yl)propanenitrile]",< 100 nM,100 to 1000 nM,100 to 1000 nM,< 100 nM,–,–,JAK1 = 17
"Cc1cnc(Nc2cnn(C)c2)nc1NC[C@@H]1C[C@H](F)CN1CC#N [Example 102, 2-((2S,4S)-4-fluoro-2-(((5-methyl-2-((1-methyl-1H-pyrazol-4-yl)amino)pyrimidin-4-yl)amino)methyl)pyrrolidin-1-yl)acetonitrile]",< 100 nM,1000 to 10000 nM,100 to 1000 nM,100 to 1000 nM,–,–,JAK1 = 16

# From US20150005281A1, “PYRIMIDINE-2,4-DIAMINE DERIVATIVES AS KINASE INHIBITORS” (Cellzome Limited, priority 2011, published 2015)
